Experimental data: US9718828B2 (MERCK SHARP & DOHME CORP., priority 2011, dated 2017)
Structures can show the parent of a compound that is named as a salt.

Biological target: Btk enzyme (His-Btk) (Homo sapiens (Human), UniProt Q06187)
Experiment: Btk enzyme activity, IMAP fluorescence polarization assay (Assay Method A)
Conditions: not given

Btk enzyme (His-Btk), sequence (Q06187 whole entry): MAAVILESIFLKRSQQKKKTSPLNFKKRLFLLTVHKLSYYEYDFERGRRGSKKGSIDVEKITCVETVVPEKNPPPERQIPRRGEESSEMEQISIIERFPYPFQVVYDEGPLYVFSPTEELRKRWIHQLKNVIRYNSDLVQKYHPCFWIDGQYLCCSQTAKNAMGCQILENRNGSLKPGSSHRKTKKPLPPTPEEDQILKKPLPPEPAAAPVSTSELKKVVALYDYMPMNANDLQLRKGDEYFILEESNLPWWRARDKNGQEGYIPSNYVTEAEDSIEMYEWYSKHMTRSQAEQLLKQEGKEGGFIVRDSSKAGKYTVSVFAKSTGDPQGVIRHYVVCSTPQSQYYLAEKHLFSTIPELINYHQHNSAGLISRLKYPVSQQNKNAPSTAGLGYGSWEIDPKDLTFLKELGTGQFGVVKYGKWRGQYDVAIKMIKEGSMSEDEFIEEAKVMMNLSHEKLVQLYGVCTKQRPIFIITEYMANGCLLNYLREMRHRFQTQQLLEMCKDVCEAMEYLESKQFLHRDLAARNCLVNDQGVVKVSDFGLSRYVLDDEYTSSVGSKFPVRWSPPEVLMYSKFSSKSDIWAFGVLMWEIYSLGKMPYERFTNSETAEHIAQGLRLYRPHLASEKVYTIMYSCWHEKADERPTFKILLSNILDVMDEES

| EC50 [nM] | SMILES |
| --- | --- |
| 100 to 1000 | N#Cc1ccnc(NC(=O)c2ccc(-c3nc(N4CCC4)n4ccnc(N)c34)cc2)c1 [Example 209, 4-(8-amino-3-(azetidin-1-yl)imidazo[1,5-a]pyrazin-1-yl)-N-(4-cyanopyridin-2-yl)benzamide] |
| < 10 | Nc1nccn2c([C@@H]3CCCN(C(=O)C4CC4)C3)nc(-c3ccc(C(=O)Nc4ccccn4)cc3)c12 [Example 52, (R)-4-(8-amino-3-(1-(cyclopropanecarbonyl)piperidin-3-yl)imidazo[1,5-a]pyrazin-1-yl)-N-(pyridin-2-yl)benzamide] |
| 10 to 100 | CC1(C)CC(c2nc(-c3ccc(C(=O)Nc4ccccn4)cc3)c3c(N)nccn23)CCO1 (centres unmarked) [Example 35, 4-(8-amino-3-(2,2-dimethyltetrahydro-2H-pyran-4-yl)imidazo[1,5-a]pyrazin-1-yl)-N-(pyridin-2-yl)benzamide] |
| < 10 | CSCCC(=O)N1CCC[C@@H](c2nc(-c3ccc(C(=O)Nc4cc(C(F)(F)F)ccn4)cc3)c3c(N)nccn23)C1 [Example 69, (R)-4-(8-amino-3-(1-(3-(methylthio)propanoyl)piperidin-3-yl)imidazo[1,5-a]pyrazin-1 yl)-N-(4-(trifluoromethyl)pyridin-2-yl)benzamide] |
| 10 to 100 | Nc1nccn2c([C@@H]3CCCN(CC4CCCC4)C3)nc(-c3ccc(C(=O)Nc4cc(C5CC5)ccn4)cc3)c12 [Example 143, (R)-4-(8-amino-3-(1-(cyclopentylmethyl)piperidin-3-yl)imidazo[1,5-a]pyrazin-1-yl)-N-(4-cyclopropylpyridin-2-yl)benzamide, TFA salt] |
| < 10 | COCCOCCC(=O)N1CCC[C@@H](c2nc(-c3ccc(C(=O)Nc4cc(C(F)(F)F)ccn4)cc3)c3c(N)nccn23)C1 [Example 68, (R)-4-(8-amino-3-(1-(3-(2-methoxyethoxy)propanoyl)piperidin-3-yl)imidazo[1,5-a]pyrazin-1-yl)-N-(4-(trifluoromethyl)pyridin-2-yl)benzamide] |
| 100 to 1000 | CS(=O)(=O)N1CCC[C@@H](c2nc(-c3ccc(C(=O)Nc4ccccn4)cc3)c3c(N)nccn23)C1 [Example 49, (R)-4-(8-amino-3-(1-(methylsulfonyl)piperidin-3-yl)imidazo[1,5-a]pyrazin-1-yl)-N-(pyridin-2-yl)benzamide] |
| 10 to 100 | COCCC(=O)N1CCC[C@@H](c2nc(-c3ccc(C(=O)Nc4ccccn4)nc3)c3c(N)nccn23)C1 [Example 287, (R)-5-(8-amino-3-(1-(3-methoxypropanoyl)piperidin-3-yl)imidazo[1,5-a]pyrazin-1-yl)-N-(pyridin-2-yl)picolinamide, TFA salt] |
| 10 to 100 | N#Cc1ccnc(NC(=O)c2ccc(-c3nc(C4CCOCC4)n4ccnc(N)c34)cc2)c1 [Example 26, 4-(8-amino-3-(tetrahydro-2H-pyran-4-yl)imidazo [1,5-a]pyrazin-1-yl)-N-(4-cyanopyridin-2-yl)benzamide] |
| < 10 | CS(=O)(=O)CCC(=O)N1CCC[C@@H](c2nc(-c3ccc(C(=O)Nc4cc(C(F)(F)F)ccn4)cc3)c3c(N)nccn23)C1 [Example 77, (R)-4-(8-amino-3-(1-(3-(methylsulfonyl)propanoyl)piperidin-3-yl)imidazo[1,5-a]pyrazin-1-yl)-N-(4-(trifluoromethyl)pyridin-2-yl)benzamide] |
| 100 to 1000 | Cc1cc(C(=O)Nc2ccccn2)ccc1-c1nc([C@H]2CC[C@H](O)CC2)n2ccnc(N)c12 [Example 16] |
| 10 to 100 | Nc1ncnn2c([C@@H]3CCCNC3)nc(-c3ccc(C(=O)Nc4cc(C(F)(F)F)ccn4)cc3)c12 [Example 258, (R)-4-(4-amino-7-(piperidin-3-yl)imidazo[1,5-f][1,2,4]triazin-5-yl)-N-(4-(trifluoromethyl)pyridin-2-yl)benzamide] |
| < 10 | CC(C)(O)CC(=O)N1CCC[C@@H](c2nc(-c3ccc(C(=O)Nc4cc(C(F)(F)F)ccn4)cc3)c3c(N)nccn23)C1 [Example 71, (R)-4-(8-amino-3-(1-(3-hydroxy-3-methylbutanoyl)piperidin-3-yl)imidazo[1,5-a]pyrazin-1-yl)-N-(4-(trifluoromethyl)pyridin-2-yl)benzamide] |
| 10 to 100 | Nc1ncnc2c1c(-c1ccc(C(=O)Nc3cc(C(F)(F)F)ccn3)cc1)nn2[C@@H]1CCCN(C(=O)C(Cl)(Cl)Cl)C1 [Example 265, (R)-4-(4-amino-1-(1-(2,2,2-trichloroacetyl)piperidin-3-yl)-1H-pyrazolo[3,4-d]pyrimidin-3-yl)-N-(4-(trifluoromethyl)pyridin-2-yl)benzamide] |
| < 10 | CS(=O)(=O)N1CC(C(=O)N2CCC[C@@H](c3nc(-c4ccc(C(=O)Nc5cc(C(F)(F)F)ccn5)cc4)c4c(N)nccn34)C2)C1 [Example 73, (R)-4-(8-amino-3-(1-(1-(methylsulfonyl)azetidine-3-carbonyl)piperidin-3 yl)imidazo[1,5-a]pyrazin-1-yl)-N-(4-(trifluoromethyl)pyridin-2-yl)benzamide] |

Same assay, conditions: read-out: EC50 Btk activity values - Assay Method A; IMAP-FP, 60 min pre-incubation, 5 μM ATP; class 100-1000 is given as ≧100 nM-<1 μM

| EC50 [nM] | SMILES |
| --- | --- |
| < 10 | COCCC(=O)N[C@@H]1CCCN(c2nc(-c3ccc(C(=O)Nc4cc(C(F)(F)F)ccn4)cc3)c3c(N)nccn23)C1 [Example 219, (R)-4-(8-amino-3-(3-(3-methoxypropanamido)piperidin-1-yl)imidazo[1,5-a]pyrazin-1-yl)-N-(4-(trifluoromethyl)pyridin-2-yl)benzamide] |
| < 10 | Nc1ncc(Cl)n2c(C3CN(C(=O)C4(O)CCC4)CCO3)nc(-c3ccc(C(=O)Nc4cc(C(F)(F)F)ccn4)cc3)c12 (centres unmarked) [Example 316, 4-(8-amino-5-chloro-3-(4-(1-hydroxycyclobutanecarbonyl)morpholin-2-yl)imidazo[1,5-a]pyrazin-1-yl)-N-(4-(trifluoromethyl)pyridin-2-yl)benzamide] |
| < 10 | C[C@H]1CC[C@@H](c2nc(-c3ccc(C(=O)Nc4cc(C5CC5)ccn4)cc3)c3c(N)nccn23)CN1C(=O)N1CCCCC1 (relative stereo) [Example 184, 4-(8-amino-3-((cis)-6-methyl-1-(piperidine-1-carbonyl)piperidin-3-yl)imidazo[1,5-a]pyrazin-1-yl)-N-(4-cyclopropylpyridin-2-yl)benzamide, TFA salt] |
| < 10 | Nc1nccn2c(N3CCCC(C(=O)N[C@H]4CCOC4)C3)nc(-c3ccc(C(=O)Nc4cc(C(F)(F)F)ccn4)cc3)c12 (stereo partly drawn) [Example 237, 1-(8-amino-1-(4-(4-(trifluoromethyl)pyridin-2-ylcarbamoyl)phenyl)imidazo[1,5-a]pyrazin-3-yl)-N-((S)-tetrahydrofuran-3-yl)piperidine-3-carboxamide, TFA salt] |
| < 10 | CCOCCC(=O)N1C[C@H](c2nc(-c3ccc(C(=O)Nc4ccccn4)cc3)c3c(N)nccn23)CC[C@@H]1C (relative stereo) [Example 206, 4-(8-amino-3-((cis)-1-(3-ethoxypropanoyl)-6-methylpiperidin-3-yl)imidazo[1,5-a]pyrazin-1-yl)-N-(pyridin-2-yl)benzamide, TFA salt] |
| < 10 | CCc1cnc(N)c2c(-c3ccc(C(=O)Nc4cc(C(F)(F)F)ccn4)cc3)nc([C@@H]3CCCN(C(=O)C4(C)COC4)C3)n12 [Example 308, (R)-4-(8-amino-5-ethyl-3-(1-(3-methyloxetane-3-carbonyl)piperidin-3-yl)imidazo[1,5-a]pyrazin-1-yl)-N-(4-(trifluoromethyl)pyridin-2-yl)benzamide] |
| < 10 | C[C@H]1CC[C@@H](c2nc(-c3ccc(C(=O)Nc4cc(C5CC5)ccn4)cc3)c3c(N)nccn23)CN1C(=O)CN1CCOC1=O (relative stereo) [Example 196, 4-(8-amino-3-((cis)-6-methyl-1-(2-(2-oxooxazolidin-3-yl)acetyl)piperidin-3-yl)imidazo[1,5-a]pyrazin-1-yl)-N-(4-cyclopropylpyridin-2-yl)benzamide, TFA salt] |
| < 10 | CCc1ccnc(NC(=O)c2ccc(-c3nc([C@H]4CC[C@H](O)CC4)n4ccnc(N)c34)cc2)c1 [Example 19, 4-(8-amino-3-((trans)-4-hydroxycyclohexyl)imidazo[1,5-a]pyrazin-1-yl)-N-(4-ethylpyridin-2-yl)benzamide] |
| < 10 | CCOC(=O)N1CCC[C@@H](c2nc(-c3ccc(C(=O)Nc4ccccn4)cc3)c3c(N)nccn23)C1 [Example 47, (R)-ethyl 3-(8-amino-1-(4-(pyridin-2-ylcarbamoyl)phenyl)imidazo[1,5-a]pyrazin-3-yl)piperidine-1-carboxylate] |
| < 10 | Nc1ncnc2c1c(-c1ccc(C(=O)Nc3cc(C(F)(F)F)ccn3)cc1)nn2[C@@H]1CCCN(C(=O)C2CC(F)(F)C2)C1 [Example 278, (R)-4-(4-amino-1-(1-(3,3-difluorocyclobutanecarbonyl)piperidin-3-yl)-1H-pyrazolo[3,4-d]pyrimidin-3-yl)-N-(4-(trifluoromethyl)pyridin-2-yl)benzamide] |
| < 10 | Nc1nccn2c([C@@H]3CCC[C@@H](NC(=O)C4CC4)C3)nc(-c3ccc(C(=O)Nc4cc(C(F)(F)F)ccn4)cc3)c12 (relative stereo) [Example 164, 4-(8-amino-3-((trans)-3-(cyclopropanecarboxamido)cyclohexyl)imidazo[1,5-a]pyrazin-1-yl)-N-(4-(trifluoromethyl)pyridin-2-yl)benzamide] |
| < 10 | CCNC(=O)N1CCC[C@@H](c2nc(-c3ccc(C(=O)Nc4ccccn4)cc3)c3c(N)nccn23)C1 [Example 48, (R)-3-(8-amino-1-(4-(pyridin-2-ylcarbamoyl)phenyl)imidazo[1,5-a]pyrazin-3-yl)-N-ethylpiperidine-1-carboxamide] |
| < 10 | CS(=O)(=O)CCNC(=O)C1CCCN(c2nc(-c3ccc(C(=O)Nc4cc(C(F)(F)F)ccn4)cc3)c3c(N)nccn23)C1 (centres unmarked) [Example 240, 1-(8-amino-1-(4-(4-(trifluoromethyl)pyridin-2-ylcarbamoyl)phenyl)imidazo[1,5-a]pyrazin-3-yl)-N-(2-(methylsulfonyl)ethyl)piperidine-3-carboxamide, TFA salt] |
| < 10 | CCCc1ccnc(NC(=O)c2ccc(-c3nc(N4CCOCC4)n4ccnc(N)c34)cc2)c1 [Example 212, 4-(8-amino-3-morpholinoimidazo[1,5-a]pyrazin-1-yl)-N-(4-propylpyridin-2-yl)benzamide] |
